Key:
Type in all cases: in vivo, human
[1] = test system: patients with advanced cancer; experiment: Quality of life by Minnesota Living with Heart Failure Questionnaire (MLHFQ), ivabradine study; conditions: N=4, LVEF>50%; total score range 0-105, lower = better QoL, <24 good QoL
Excerpt: N=4, LVEF>50%. […] MLHFQ has a total score range of 0-105. A lower score indicated a better QoL, with a score of <24 indicating good QoL, scores from 24 to […] indicating moderately impaired QoL, scores >45 indicating low QoL.
(§1) In this study 4 cancer patients with no known heart failure and with normal left ventricular function (LEF>50%) were studied. They all had histologically confirmed diagnoses of cancer (see table 1), and all suffered poor quality of life, with three showing a Karnofksy performance score of 70-80% (indicating an inability to carry on normal activity or to do active work) and one showing a Karnofksy performance score of 50-60% (indicating a need for considerable assistance and frequent medical care). […] All were given Ivabradine at a starting dose of 5 mg twice a day. Heart rate was reduced in all patients from 104.5±10.4 bpm to 77.0±10.9 bpm. […] The questionnaires are the Minnesota Living with Heart Failure Questionnaire (MLHFQ) (see FIG. 15) and the Kansas City Cardiomyopathy Questionnaire (KCCQ) (see FIG. 14). In the […] indicate a better quality of life and in the MLWHFQ lower scores indicate a better quality of life. The two figures show the clinically important improvement in symptoms and quality of life achieved in these patient by the use of the heart failure drug Ivabradine.

[2] = test system: patients with advanced cancer; experiment: Prospective study of ivabradine in advanced cancer patients: heart rate; conditions: 4 cancer patients, no known heart failure, LVEF>50%, heart rate >70 bpm; Ivabradine starting dose 5 mg twice a day; reduced from 104.5±10.4 bpm
Excerpt: In this study an effect of a use of a heart drug in advanced cancer was studied. In some cases, a heart drug can comprise ivabradine. In some cases, ivabradine can be a selective antagonist of myocardial If (funny) channels. […] In some cases, ivabradine can provide pure heart rate reduction, reducing a diastolic depolarization slope, without altering other cardiac and hemodynamic parameters. In some cases, ivabradine can be effective for a treatment of an ischemic heart disease. In some cases, ivabradine can reduce episodes of both symptomatic angina pectoris and myocardial ischemia, and in heart failure where it can reduce mortality and morbidity. In some cases, it may only be approved or recommended for treatment of these two conditions. In some cases, ivabradine may have never been recommended for a treatment of a cancer patient. Disclosed herein in some embodiments, are methods in which ivabradine can be administered for a treatment of a cancer patient.
In this study 4 cancer patients with no known heart failure and with normal left ventricular function (LEF>50%) were studied. […]

[3] = test system: patients with advanced cancer; experiment: Quality of life by Kansas City Cardiomyopathy Questionnaire (KCCQ), ivabradine study
Excerpt: N=4, LVEF>50%. A 5 unit increase was considered a clinically meaningful change. […] The KCCQ score range is 0-100, with higher scores indicating better QoL, and improvements of ≥5 indicated clinically important changes.
as §1

COc1cc2c(cc1OC)CC(=O)N(CCCN(C)C[C@H]1Cc3cc(OC)c(OC)cc31)CC2 [Ivabradine]
MLHFQ score, baseline to follow-up [1]: improvements from baseline to follow-up, with good QoL at follow-up | Heart rate on ivabradine [2]: 77.0±10.9 bpm | Symptoms (breathlessness, fatigue) by MLHFQ and KCCQ symptom scores ([3]; 4 cancer patients, addition of ivabradine 5 mg twice a day starting dose): importantly improved symptoms | KCCQ score improvement from baseline to follow up ([3]; N=4, LVEF>50%, score range 0-100, higher = better QoL, improvement ≥5 clinically important): ≥ 5

— US20230082989A1, “DEVICES AND METHODS FOR TREATING CANCER AND CARDIAC WASTING” (Nazzano Devices Limited, priority 2020, published 2023)
